Reference: patent publication US7049314B2, “Cyclopentyl indole derivatives” (Bristol-Myers Squibb Company, priority 2002, dated 2006)
Like-named read-outs stand apart in the source and are kept apart here.

What was measured:
[1] = biological target: T1, human norepinephrine transporters (Homo sapiens, UniProt P23975); assay: Norepinephrine Transporter Binding Assay ([3H]-nisoxetine displacement, hNET cell membranes); conditions: 2.7 nM [3H]-nisoxetine, 1 hr at 4° C., read-out: NE Reuptake (binding Ki)
T1 construct: host or cells: MDCK cells (also 'HEK-hNET cells'), membrane homogenates
T1 sequence (P23975 whole entry): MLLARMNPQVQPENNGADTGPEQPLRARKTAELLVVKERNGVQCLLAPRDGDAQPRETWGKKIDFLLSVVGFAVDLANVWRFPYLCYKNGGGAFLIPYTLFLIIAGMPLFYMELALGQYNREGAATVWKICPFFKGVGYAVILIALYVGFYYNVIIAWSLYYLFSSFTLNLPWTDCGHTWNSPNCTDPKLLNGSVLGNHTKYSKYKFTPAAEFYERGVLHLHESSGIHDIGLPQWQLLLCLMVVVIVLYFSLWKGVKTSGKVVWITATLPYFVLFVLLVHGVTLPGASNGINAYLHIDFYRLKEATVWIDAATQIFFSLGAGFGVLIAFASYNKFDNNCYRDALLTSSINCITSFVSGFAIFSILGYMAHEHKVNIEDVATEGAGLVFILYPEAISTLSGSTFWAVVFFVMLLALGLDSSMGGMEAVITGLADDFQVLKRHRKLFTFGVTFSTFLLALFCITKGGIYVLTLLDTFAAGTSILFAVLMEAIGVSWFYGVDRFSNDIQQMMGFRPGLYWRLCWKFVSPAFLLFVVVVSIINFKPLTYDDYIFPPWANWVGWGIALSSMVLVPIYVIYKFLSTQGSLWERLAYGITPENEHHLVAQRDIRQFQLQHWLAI
Description: MDCK cells that stably express human norepinephrine transporters (HEK-hNET cells) were supplied by Receptor Biology, Inc. Pellets were resuspended by homogenization in buffer consisting of 50 mM Tris (pH 7.4 at 25° C.), 120 mM NaCl and 5 mM KCl. Membrane homogenates (200 μl/well, 8 ug protein) were incubated with 2.7 nM [^3H]-nisoxetine (specific activity=80 Ci/mMol) and increasing concentrations of test compounds for 1 hr at 4° C. in a total volume of 250 μl. The assay buffer consisted of 50 mM Tris (pH 7.4 at 25° C.), 120 mM NaCl and 5 mM KCl (pH 7.4 with conc. HCl). Plates were incubated for 1 hr at 4° C., then filtered through 0.5% PEI treated Whatman GF/B filters using a Brandel cell harvester. Filters were washed three times with 3 mL of ice-cold tris wash buffer. Non-specific binding was defined with 10 μM desipramine. Amount of radioligand bound in the presence and absence of competitor was analyzed by plotting (−)log drug concentration versus the amount of radioligand specifically bound. The midpoint of the displacement curve (IC50, nM), signifies the potency. Ki values were calculated using the method of Cheng and Prusoff (1973).

[2] = biological target: T2, human serotonin transporters (Homo sapiens, UniProt P31645); assay: Serotonin Transporter Binding Assay ([3H]-citalopram displacement, HEK-hSERT cell membranes)
T2 construct: expressed in transfected cells
T2 sequence (P31645 whole entry): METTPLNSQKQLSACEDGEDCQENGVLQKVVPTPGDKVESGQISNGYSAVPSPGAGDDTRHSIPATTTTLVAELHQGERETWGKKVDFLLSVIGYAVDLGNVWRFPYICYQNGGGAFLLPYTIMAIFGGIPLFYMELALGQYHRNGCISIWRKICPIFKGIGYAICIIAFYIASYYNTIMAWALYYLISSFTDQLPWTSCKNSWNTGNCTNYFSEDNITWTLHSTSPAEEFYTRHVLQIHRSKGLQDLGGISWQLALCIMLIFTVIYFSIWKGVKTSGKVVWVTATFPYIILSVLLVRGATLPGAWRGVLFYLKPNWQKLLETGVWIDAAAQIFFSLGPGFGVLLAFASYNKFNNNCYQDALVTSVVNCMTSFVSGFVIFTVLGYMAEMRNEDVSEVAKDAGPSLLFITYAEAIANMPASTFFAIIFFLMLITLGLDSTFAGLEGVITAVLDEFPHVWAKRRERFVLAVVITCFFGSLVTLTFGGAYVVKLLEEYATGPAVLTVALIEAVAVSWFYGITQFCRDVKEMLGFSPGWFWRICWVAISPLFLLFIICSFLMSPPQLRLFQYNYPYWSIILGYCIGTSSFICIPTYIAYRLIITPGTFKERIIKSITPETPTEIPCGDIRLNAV
Description: HEK-293 cells that stably express human serotonin transporters (HEK-hSERT cells) were grown at 37° C. in 5% CO2 as a monolayer in medium consisting of EMEM supplemented with 10% fetal bovine serum and G418 sulfate (500 μg/mL). To prepare membranes for radioligand binding experiments, cells were rinsed twice with phosphate-buffered saline (138 mM NaCl, 4.1 mM KCl, 5.1 mM Na2PO4, 1.5 mM […], 11.1 mM glucose, pH 7.4). Cells were transferred from plates to polypropylene tubes (16×100 mm), centrifuged at 1,200×g for 5 min and were frozen at −80° C. until assay. Following centrifugation, pellets were resuspended by homogenization in buffer consisting of 50 mM Tris (pH 7.7 at 25° C.), 120 mM NaCl and 5 mM KCl and then centrifuged at 32,000×g for 10 min. Following centrifugation, supernatants were discarded and pellets were resuspended in buffer consisting of 50 mM Tris (pH 7.4 at 25° C.), 150 mM NaCl and 5 mM KCl. Membrane homogenates (200 μl/plate) were incubated with 1 nM [^3H]-citalopram (specific activity=85 Ci/mMol) and increasing concentrations of test compounds for 1 hr at 25° C. in a total volume of 250 μl. The assay buffer consisted of 50 mM Tris (pH 7.4 at 25° C.), 120 mM NaCl and 5 mM KCl (pH 7.4 with conc. HCl). Plates were incubated for 1 hr at 25° C., then filtered through 0.5% PEI treated Whatman GF/B filters using a Brandel cell harvester. Filters were washed three times with 3 mL of ice-cold tris wash buffer. Non-specific binding was defined with 10 μM fluoxetine. Amount of radioligand bound in the presence and absence of competitor was analyzed by plotting (−)log drug concentration versus the amount of radioligand specifically bound. The midpoint of the displacement curve (IC50, nM), signifies the potency. Ki values were calculated using the method of Cheng and Prusoff (1973).

[3] = HEK-hSERT membranes, 1 nM [3H]-citalopram, 1 hr at 25° C., read-out: SERT (binding Ki)

SMILES	Ki [1] [µM]	Ki [2] [µM]	Ki [2, 3] [µM]
CNC1CCC(c2c[nH]c3ccc(C#N)cc23)C1 (stereo not shown) [Compound 1, 3-(3-Methylamino-cyclopentyl)-1H-indole-5-carbonitrile]	> 1	0.001 to 0.01	–
CCNC1CCC(c2c[nH]c3ccc(C#N)cc23)C1 (stereo not shown) [Compound 2, 3-(3-Ethylamino-cyclopentyl)-1H-indole-5-carbonitrile]	> 1	0.001 to 0.01	–
CN(C)C1CCC(c2c[nH]c3ccc(C#N)cc23)C1 (stereo not shown) [Compound 3, 3-(3-Dimethylamino-cyclopentyl)-1H-indole-5-carbonitrile]	> 1	–	< 0.001
CCN(C)C1CCC(c2c[nH]c3ccc(C#N)cc23)C1 (stereo not shown) [Compound 4, 3-[3-(Ethyl-methyl-amino)-cyclopentyl]-1H-indole-5-carbonitrile]	> 1	–	0.001 to 0.01
CCN(CC)C1CCC(c2c[nH]c3ccc(C#N)cc23)C1 (stereo not shown) [Compound 5, 3-(3-Diethylamino-cyclopentyl)-1H-indole-5-carbonitrile]	> 1	–	0.001 to 0.01
N#Cc1ccc2[nH]cc(C3CCC(N4CCCC4)C3)c2c1 (stereo not shown) [Compound 6, 3-(3-Pyrrolidin-1-yl-cyclopentyl)-1H-indole-5-carbonitrile]	> 1	0.001 to 0.01	–
N#Cc1ccc2[nH]cc(C3CCC(N4Cc5ccccc5C4)C3)c2c1 (stereo not shown) [Compound 7, 3-[3-(1,3-Dihydro-isoindol-2-yl)-cyclopentyl]-1H-indole-5-carbonitrile]	> 1	–	0.001 to 0.01
N#Cc1ccc2[nH]cc(C3CCC(N4CCc5ccccc5C4)C3)c2c1 (stereo not shown) [Compound 8, 3-[3-(3,4-Dihydro-1H-isoquinolin-2-yl)-cyclopentyl]-1H-indole-5-carbonitrile]	0.1 to 1	–	0.001 to 0.01
N#Cc1ccc2[nH]cc(C3CCC(NCCc4ccccc4)C3)c2c1 (stereo not shown) [Compound 9, 3-(3-Phenethylamino-cyclopentyl)-1H-indole-5-carbonitrile]	0.1 to 1	–	0.001 to 0.01
CN(CCc1ccccc1)C1CCC(c2c[nH]c3ccc(C#N)cc23)C1 (stereo not shown) [Compound 10, 3-[3-(Methyl-phenethyl-amino)-cyclopentyl]-1H-indole-5-carbonitrile]	0.1 to 1	–	0.001 to 0.01
N#Cc1ccc2[nH]cc(C3CCC(N4CCOCC4)C3)c2c1 (stereo not shown) [Compound 11, 3-(3-Morpholin-4-yl-cyclopentyl)-1H-indole-5-carbonitrile]	> 1	< 0.001	–
CN(Cc1ccccc1)C1CCC(c2c[nH]c3ccc(C#N)cc23)C1 (stereo not shown) [Compound 12, 3-[3-(Benzyl-methyl-amino)-cyclopentyl]-1H-indole-5-carbonitrile]	0.1 to 1	–	0.001 to 0.01
N#Cc1ccc2[nH]cc(C3CCC(NCc4ccccc4)C3)c2c1 (stereo not shown) [Compound 13, 3-(3-Benzylamino-cyclopentyl)-1H-indole-5-carbonitrile]	0.1 to 1	–	0.001 to 0.01
N#Cc1ccc2[nH]cc(C3CCC(N4CCCCC4)C3)c2c1 (stereo not shown) [Compound 14, 3-(3-Piperidin-1-yl-cyclopentyl)-1H-indole-5-carbonitrile]	> 1	< 0.001	–
CCCN(CCC)C1CCC(c2c[nH]c3ccc(C#N)cc23)C1 (stereo not shown) [Compound 15, 3-(3-Dipropylamino-cyclopentyl)-1H-indole-5-carbonitrile]	> 1	–	0.001 to 0.01
CCCNC1CCC(c2c[nH]c3ccc(C#N)cc23)C1 (stereo not shown) [Compound 16, 3-(3-Propylamino-cyclopentyl)-1H-indole-5-carbonitrile]	> 1	< 0.001	–
CNC1CCC(c2cn(C)c3ccc(C#N)cc23)C1 (stereo not shown) [Compound 17, 1-Methyl-3-(3-methylamino-cyclopentyl)-1H-indole-5-carbonitrile]	> 1	0.001 to 0.01	–
CCNC1CCC(c2cn(C)c3ccc(C#N)cc23)C1 (stereo not shown) [Compound 18, 3-(3-Ethylamino-cyclopentyl)-1-methyl-1H-indole-5-carbonitrile]	> 1	< 0.001	–
Cn1cc(C2CCC(NCc3ccccc3)C2)c2cc(C#N)ccc21 (stereo not shown) [Compound 19, 3-(3-Benzylamino-cyclopentyl)-1-methyl-1H-indole-5-carbonitrile]	0.1 to 1	–	0.001 to 0.01

SMILES	Ki [1] [µM]	Ki [2] [µM]	Ki [2, 3] [µM]
Cn1cc(C2CCC(NCCc3ccccc3)C2)c2cc(C#N)ccc21 (stereo not shown) [Compound 20, 1-Methyl-3-(3-phenethylamino-cyclopentyl)-1H-indole-5-carbonitrile]	0.1 to 1	–	0.001 to 0.01
CN(C)C1CCC(c2cn(C)c3ccc(C#N)cc23)C1 (stereo not shown) [Compound 21, 3-(3-Dimethylamino-cyclopentyl)-1-methyl-1H-indole-5-carbonitrile]	> 1	0.001 to 0.01	–
CCN(C)C1CCC(c2cn(C)c3ccc(C#N)cc23)C1 (stereo not shown) [Compound 22, 3-[3-(Ethyl-methyl-amino)-cyclopentyl]-1-methyl-1H-indole-5-carbonitrile]	> 1	0.001 to 0.01	–
CCN(CC)C1CCC(c2cn(C)c3ccc(C#N)cc23)C1 (stereo not shown) [Compound 23, 3-(3-Diethylamino-cyclopentyl)-1-methyl-1H-indole-5-carbonitrile]	> 1	< 0.001	–
Cn1cc(C2CCC(N3CCCC3)C2)c2cc(C#N)ccc21 (stereo not shown) [Compound 24, 1-Methyl-3-(3-pyrrolidin-1-yl-cyclopentyl)-1H-indole-5-carbonitrile]	> 1	0.001 to 0.01	–
CN(C)C1CCC(c2c[nH]c3cccc(F)c23)C1 (stereo not shown) [Compound 37, 3-(4-Fluoro-1H-indol-3-yl)-cyclopentyl-dimethyl-amine]	–	–	0.01 to 0.1
CN(C)C1CCC(c2c[nH]c3cccc(Br)c23)C1 (stereo not shown) [Compound 38, 3-(4-Bromo-1H-indol-3-yl)-cyclopentyl-dimethyl-amine]	–	–	0.001 to 0.01
CN(C)C1CCC(c2c[nH]c3ccc(Cl)cc23)C1 (stereo not shown) [Compound 39, 3-(5-Chloro-1H-indol-3-yl)-cyclopentyl-dimethyl-amine]	–	–	0.001 to 0.01
CN(C)C1CCC(c2c[nH]c3ccc(Br)cc23)C1 (stereo not shown) [Compound 40, 3-(5-Bromo-1H-indol-3-yl)-cyclopentyl-dimethyl-amine]	–	–	0.001 to 0.01
CN(C)C1CCC(c2c[nH]c3ccc(I)cc23)C1 (stereo not shown) [Compound 41, 3-(5-Iodo-1H-indol-3-yl)-cyclopentyl-dimethyl-amine]	–	–	0.01 to 0.1
CN(C)C1CCC(c2c[nH]c3cc(F)ccc23)C1 (stereo not shown) [Compound 42, 3-(6-Fluoro-1H-indol-3-yl)-cyclopentyl-dimethyl-amine]	–	–	0.001 to 0.01
CN(C)C1CCC(c2c[nH]c3cc(Cl)ccc23)C1 (stereo not shown) [Compound 43, 3-(6-Chloro-1H-indol-3-yl)-cyclopentyl-dimethyl-amine]	–	–	0.001 to 0.01
CN(C)C1CCC(c2c[nH]c3cc(Br)ccc23)C1 (stereo not shown) [Compound 44, 3-(6-Bromo-1H-indol-3-yl)-cyclopentyl-dimethyl-amine]	–	–	0.001 to 0.01
CN(C)C1CCC(c2c[nH]c3c(F)cccc23)C1 (stereo not shown) [Compound 45, 3-(7-Fluoro-1H-indol-3-yl)-cyclopentyl-dimethyl-amine]	–	–	0.001 to 0.01
CN(C)C1CCC(c2c[nH]c3c(Cl)cccc23)C1 (stereo not shown) [Compound 46, 3-(7-Chloro-1H-indol-3-yl)-cyclopentyl-dimethyl-amine]	–	–	< 0.001
CN(C)C1CCC(c2c[nH]c3c(Br)cccc23)C1 (stereo not shown) [Compound 47, 3-(7-Bromo-1H-indol-3-yl)-cyclopentyl-dimethyl-amine]	–	–	0.001 to 0.01
N#Cc1ccc2[nH]cc([C@H]3CCC(N)C3)c2c1 (stereo partly drawn) [Compound 60, (1S)-3-(3-Amino-cyclopentyl)-1H-indole-05-carbonitrile]	–	–	0.01 to 0.1
N#Cc1ccc2[nH]cc([C@H]3CCC(NC4CC[C@H](c5c[nH]c6ccc(C#N)cc56)C4)C3)c2c1 (stereo partly drawn) [Compound 61, (3S,3′S)-bis-(3-(5-cyano-1H-indol-3-yl)cyclopentyl)amine]	–	–	0.001 to 0.01
